Results taken from ChEMBL document CHEMBL1201862, “PubChem BioAssay data set” (2004).
Values joined by “and” are separate entries in the source; they are usually repeats but may differ in a detail not shown here. Equal values may be shown once.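 A five-concentration, 48-hour dose response in 96-well plates underlies each endpoint, interpolated linearly between surrounding concentrations. Abbreviation: GI50, concentration required for 50% inhibition of growth.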 Active and inactive are the calls of the source. Rule as the data show it: active = GI50 up to about 1.1 µM and inactive = higher. Where a SMILES comes first, the peptide text is derived from it. Bridges are numbered along the chain shown (N, C = ends). The star is where a group is joined. Cbz = O=C(OCc1ccccc1)*

What was measured:
Test in all cases: DTP human tumour cell line panel, 48 h
[1] = system: 786-0
[2] = system: A498
[3] = system: A549
[4] = system: ACHN
[5] = system: BT-549
[6] = system: CAKI-1
[7] = system: COLO 205
[8] = system: DU-145
[9] = system: EKVX
[10] = system: HCC 2998
[11] = system: HCT-116
[12] = system: HCT-15
[13] = system: HOP-62
[14] = system: HOP-92
[15] = system: HT-29
[16] = system: IGROV-1
[17] = system: K562
[18] = system: KM12
[19] = system: M14
[20] = system: MCF7
[21] = system: MDA-MB-231
[22] = system: MDA-MB-435
[23] = system: MDA-N
[24] = system: MOLT-4
[25] = system: Malme-3M
[26] = system: NCI-H226
[27] = system: NCI-H23
[28] = system: NCI-H460
[29] = system: NCI-H522
[30] = system: NCI/ADR-RES
[31] = system: OVCAR-4
[32] = system: OVCAR-5
[33] = system: PC-3
[34] = system: RPMI-8226
[35] = system: RXF 393
[36] = system: SF-268
[37] = system: SF-295
[38] = system: SK-MEL-28
[39] = system: SK-MEL-2
[40] = system: SK-MEL-5
[41] = system: SK-OV-3
[42] = system: SN12C
[43] = system: SNB-19
[44] = system: SNB-75
[45] = system: SW-620
[46] = system: TK-10
[47] = system: U-251
[48] = system: UACC-257
[49] = system: UACC-62
[50] = system: UO-31
[51] = system: CCRF-CEM
[52] = system: HL-60
[53] = system: Hs-578T
[54] = system: LOX IMVI
[55] = system: SR
[56] = system: T47D
[57] = system: OVCAR-3
[58] = system: OVCAR-8
[59] = system: SF-539

Measured: GI50

Nn1c(CNc2ccc(-c3nnc(Nc4ccc(Cl)cc4)n3N)cc2)nnc1Nc1ccc(Cl)cc1
inactive: [1] > 100 µM | [2] > 100 µM | [3] > 100 µM | [4] > 100 µM | [5] > 100 µM | [6] > 100 µM | [7] > 100 µM | [8] > 100 µM | [9] > 100 µM | [10] > 100 µM | [11] 37.1 µM | [13] 34.1 µM | [14] > 100 µM | [15] 44.2 µM | [16] > 100 µM | [17] 67.9 µM | [18] > 100 µM | [19] 51.6 µM | [20] 61.1 µM | [21] > 100 µM | [22] > 100 µM | [23] 80.7 µM | [24] 55.7 µM | [25] > 100 µM | [26] > 100 µM | [27] > 100 µM | [28] > 100 µM | [29] 75.5 µM | [30] > 100 µM | [31] > 100 µM | [32] > 100 µM | [33] > 100 µM | [34] 61.9 µM | [35] > 100 µM | [36] > 100 µM | [37] > 100 µM | [38] > 100 µM | [39] > 100 µM | [40] > 100 µM | [41] > 100 µM | [42] > 100 µM | [43] > 100 µM | [44] > 100 µM | [45] > 100 µM | [46] > 100 µM | [47] > 100 µM | [48] > 100 µM | [49] 50.9 µM | [50] 61.4 µM
> 100 µM: [12]

CC(=O)NC1(C(=O)N[C@@H](Cc2ccccc2)C(=O)NC2CCCCC2)Cc2ccc3ccccc3c2-c2c(ccc3ccccc23)C1
inactive: [1] 8.95 µM and 8.73 µM | [2] 14.6 µM and 21.2 µM | [4] 4.06 µM and 7.73 µM | [5] 8.97 µM and 15.2 µM | [6] 26.7 µM and 15.6 µM | [51] 5.18 µM and 3.47 µM | [10] 6.73 µM and 4.54 µM | [11] 4.48 µM and 6.7 µM | [52] 5.02 µM and 3.49 µM | [14] 48.6 µM and 32 µM | [15] 6.37 µM and 4.84 µM | [53] > 100 µM | [54] 53.2 µM and 50.5 µM | [20] 3.03 µM and 5.48 µM | [28] 6.17 µM and 3.41 µM | [30] 3.94 µM and 6.82 µM | [39] 15.3 µM and 7.89 µM | [55] 14.7 µM and 12.6 µM | [45] 17.8 µM and 25.3 µM | [56] 4.55 µM and 5.27 µM | [47] 9.53 µM and 5.89 µM
6.61 µM and 3.9 µM: [12]

COC(=O)C1CCCCNC(=O)CCC(NC(=O)OCc2ccccc2)C(=O)N1 (stereo not drawn) (Cbz-Glu-Lys-OMe; lactam 1-2; configuration not given here)
inactive: [1] 43.6 µM | [2] > 100 µM | [3] > 100 µM | [4] > 100 µM | [6] > 100 µM | [51] > 100 µM | [7] > 100 µM | [8] > 100 µM | [9] > 100 µM | [11] > 100 µM | [52] > 100 µM | [13] 38.7 µM | [14] 43.6 µM | [15] > 100 µM | [53] 65.9 µM | [16] > 100 µM | [17] > 100 µM | [18] > 100 µM | [54] > 100 µM | [19] > 100 µM | [20] > 100 µM | [21] 62.7 µM | [22] > 100 µM | [23] > 100 µM | [24] > 100 µM | [25] > 100 µM | [26] > 100 µM | [27] > 100 µM | [28] > 100 µM | [29] > 100 µM | [30] > 100 µM | [57] > 100 µM | [31] > 100 µM | [32] > 100 µM | [58] > 100 µM | [33] > 100 µM | [34] > 100 µM | [35] 25.5 µM | [36] 56.1 µM | [37] 50.1 µM | [59] > 100 µM | [38] > 100 µM | [39] > 100 µM | [40] > 100 µM | [41] 56.1 µM | [42] > 100 µM | [43] 66.7 µM | [44] > 100 µM | [55] > 100 µM | [45] > 100 µM | [56] > 100 µM | [46] > 100 µM | [47] 39.3 µM | [48] > 100 µM | [49] > 100 µM | [50] > 100 µM
> 100 µM: [12]
